This note sets out measurements from US9018263B2, “Antimicrobial compositions comprising trimethylene glycol oligomer and methods of using the compositions” (E I du Pont de Nemours and Company, priority 2010, dated 2015).

In assay [1] the test system is Escherichia coli ATCC 8739. The experiment in a line: Example 4: di(1,3-propanediol) and DPG, plate counts. The class given is cell-based. To be noted: for CFU/mL: E. coli inoculum. The protocol: (§1) Two test microorganisms were used, the Gram-negative bacterium, Escherichia coli ATCC 8739, and the Gram-positive bacterium, Staphylococcus aureus ATCC 6538. These microrganisms were grown overnight in 10 mL Tryptic soy broth (TSB) starter cultures, and then inoculated into Klett flasks containing 30 mL of TSB. The Klett flasks were incubated on an incubator shaker at 37° C. until the desired Klett reading was obtained (early stationary phase). Each test inoculum was prepared by adding 0.1 mL of the Klett flask culture to 9.9 mL of Mueller-Hinton II Broth (cation-adjusted) or M9 Broth.
(§2) The unfractionated mixture, each fraction, a control, and DPG (comparative example) were analyzed for antibacterial or bacteristatic properties against E. coli according to the protocol shown below. Numbers in exponential format are indicated with “E”, i.e. 2.2×10^+9 are written as 2.2E+09.

In assay [2] the test system is Staphylococcus aureus ATCC 6538. The description is as above. The class given is cell-based. The note with it: for CFU/mL: S. aureus inoculum; for effect on gram positive bacteria (in words): S. aureus. As to the method:
[The source words this procedure for another target and reports this target under the same test.] as §1, §2

As for 1,2-dipropaneglycol [DPG], the CFU/mL in assay [1] (Conc. 0.1%) worked out at 2.1E+08 CFU/mL; in assay [1] (Conc. 0.5%), 2.9E+08 CFU/mL; in assay [1] (Conc. 1%) it was 3.7E+08 CFU/mL; in assay [1] (Conc. 10%), 1.5E+05 CFU/mL; in assay [2] (Conc. 0.1%) it was 2.0E+07 CFU/mL; in assay [2] (Conc. 0.5%), 2.0E+07 CFU/mL. Further, the results for the CFU/mL in assay [2] (Conc. 1%) and in assay [2] (Conc. 10%) were 2.0E+07 CFU/mL and 2.1E+07 CFU/mL, respectively. In addition, in assay [2] (0.1 to 10%), the “effect on gram positive bacteria (in words)” value is “little or no antibacterial or bacteristatic effect”.
In the case of `OCCCOCCCO` [PDO Dimer, di(1,3-propanediol)], the CFU/mL was 3.2E+08 CFU/mL in assay [1] (Conc. 0.1%); 7.6E+02 CFU/mL in assay [1] (Conc. 0.5%); less than 10 CFU/mL in assay [1] (Conc. 1%); 2.7E+07 CFU/mL in assay [2] (Conc. 0.1%); 1.4E+04 CFU/mL in assay [2] (Conc. 0.5%); 1.6E+03 CFU/mL in assay [2] (Conc. 1%). The “effect on gram negative bacteria (in words)” value in assay [1] (E. coli, concentrations of 0.5% and 1%) is “kills or inhibits the growth”. In assay [2] (concentrations of 0.5% and 1%), the “effect on gram positive bacteria (in words)” value is “kills or inhibits the growth”.
